Measured values as given in patent publication US20150065347A1, “CO-CRYSTALS OF DICAMBA AND A CO-CRYSTAL FORMER B” (priority 2012, published 2015).
≈ marks a conversion by molar mass, not a printed value.

Legend:
[1] = Water solubility of the co-crystals (slurry equilibration, HPLC); format: physicochemical; conditions: water suspension (slurry), thermodynamic from solid; water suspensions slurried for 24 hours, filtered, liquid phase by HPLC, room temperature
Description: The determination of the amount of the actives in solution was performed on HPLC ACQUITY (Water) system, equipped with PDA—230 nm UV detector and Sample Manager auto-injector. Waters' Enpower software was used to record the chromatograms and to calculate the chromatographic parameters. […] Injection volume was set 1 μL by auto injector. The analysis were performed with rate flux of 0.4 ml/min. UV detection was performed at 245 nm. Peak identities were confirmed by spectrum and retention time comparison. All the analyses were performed at room temperature. All the analyzed solutions were prepared by slurry equilibration experiments. […] The suspensions were filtered and both solid phase and liquid phase were analyzed by XRPD and HPLC, respectively.

[2] = Isothermal TGA volatility study; format: physicochemical; conditions: isothermal TGA at 100° C., weight loss monitored for 12 hours, nitrogen flow
Description: TG/DTA measurement was carried out on a Seiko TG/DTA 7200 instrument. An open aluminium pan was used and the measurement was carried out under nitrogen flow with a sample weight of 5 to 10 mg. The isothermal TGA for volatility studies were performed at 100° C. and the weight loss was monitored for 12 hours.

With `COc1c(Cl)ccc(Cl)c1C(=O)O` [Dicamba, 3,6-dichloro-2-methoxybenzoic acid] the solubility at 24 h [1] was 6550 µg/mL (≈ 29.6 mM) and the “TGA Volatility (% weight loss per minute)” value [2] was 1.20 × 10^−2 % weight loss per minute.
